The source of these data is US20240018166A1, “SULFONYL UREA NLRP3 INFLAMMASOME INHIBITORS” (Venatorx Pharmaceuticals, Inc., priority 2020, published 2024).

What all share (type): cell-based
One data set deals with IL-1β. As to the kind of experiment: IL-1β inhibition assay (ELISA/HTRF of culture supernatants). As to conditions: Homo sapiens, PMA-differentiated THP-1 cells, tested 10 μM to 0.003 μM. The protocol: Human monocyte-like THP-1 cells were grown in RPMI media supplemented with 10% FBS (growth media) at 37° C., 5% CO2. Cell cultures were passaged every three days and maintained at a density of 5×10^5 to 1×10^6 cells per mL.
Compounds were prepared as 10 mM stock solutions in 100% DMSO. […] Each 200× dilution was then diluted 20-fold in growth media (step down dilution) to yield a 10× final assay concentration range. All compounds were tested over a final assay concentration range of 10 μM to 0.003 μM.
The level of IL-10 in supernatants from PMA-differentiated THP-1 cells was determined by ELISA using either the R&D Systems Human IL-1 beta/IL-1F2 Quantikine ELISA or the cisbio HTRF human IL 1 beta kit. Manufacturer's protocols were followed without deviation.
Background values were subtracted and resulting values were converted to percentage of vehicle-treated controls. Data was analyzed via GraphPad Prism 7.0 using a non-linear regression (variable slope (four-parameter)) equation.
Table 2 provides IL-10 ELISA EC50 values for example compounds. A indicates EC50>10 μM; B indicates EC50 between 1 and 10 μM (inclusive); C indicates EC50<1 μM.
For orientation: ELISA stands for enzyme-linked immunosorbent assay.

Data set [1] is described as follows: MTT cell viability assay, THP-1 cells. The settings on record: human, unstimulated THP-1 cells, read-out: THP-1 Cytotoxicity CC50. The protocol:
(§1) In order to assess the cytotoxicity of the compounds, an MTT cell viability assay was performed in either unstimulated THP-1 or HepG2 cells as follows. 5×10^4 THP-1 or 5×10^3 HepG2 cells were seeded into each well of a 96-well plate in 90 μL of media. Compounds were added to cells as described for the IL-10 assay and returned to the incubator for an additional 72 hours. Next, 25 μL of MTT solution (5 mg/mL in sterile PBS) was added to each well. Plates were incubated for 3 hours at 37° C., 5% CO2. Next, for THP-1 cells, 100 μl of MTT solubilization solution (40% Dimethylformamide, 2% glacial acetic acid, 16% sodium dodecyl sulfate) was then added to each well and plates were incubated at room temperature in the dark overnight. For HepG2 cells, media was aspirated, 50 μL of DMSO was added and plates were mixed briefly with an orbital plate shaker. Absorbance at 570 nm was measured using a Perkin-Elmer EnVision plate reader.
Absorbance values were converted to percentage of vehicle-treated controls. Data was then analyzed using a non-linear regression (variable slope (four-parameter)) equation in GraphPad Prism 7.0.
Table 2 provides THP-1 cytotoxicity assay CC50 values for example compounds. A indicates CC50>10 μM; B indicates CC50 between 1 and 10 μM (inclusive); C indicates CC50<1 μM. NT, not tested.
Background: Tetrazolium assays rely on reduction of a dye to a coloured formazan, in cell work by metabolically active cells.

The nature of data set [2]: MTT cell viability assay, HepG2 cells. As to conditions: human, read-out: HepG2 Cytotoxicity CC50. The protocol:
as §1
Absorbance values were converted to percentage of vehicle-treated controls. Data was then analyzed using a non-linear regression (variable slope (four-parameter)) equation in GraphPad Prism 7.0. […]

Take `CC1(C)[C@@H]2C[C@H]3OB(CCCc4ccc(S(=O)(=O)NC(=O)Nc5c6c(cc7c5CCC7)CCC6)cc4O)O[C@@]3(C)[C@H]1C2` [Example 48, N-((1,2,3,5,6,7-hexahydro-s-indacen-4-yl)carbamoyl)-3-hydroxy-4-(3-((3aS,4S,6S,7aR)-3a,5,5-trimethylhexahydro-4,6-methanobenzo[d][1,3,2]dioxaborol-2-yl)propyl)benzenesulfonamide]: the 50% effective concentration (EC50) (usually the concentration at which the effect is half-maximal) with IL-1β was 1 to 10 µM. The CC50 (commonly the concentration that lowers cell viability or growth by half) at 72 h in data set [1] is greater than 10 µM.

Compound `CC1(C)[C@@H]2C[C@H]3OB(CCCc4cc(S(=O)(=O)NC(=O)Nc5c6c(cc7c5CCC7)CCC6)ccc4O)O[C@@]3(C)[C@H]1C2` [Example 49, N-((1,2,3,5,6,7-hexahydro-s-indacen-4-yl)carbamoyl)-4-hydroxy-3-(3-((3aS,4S,6S,7aR)-3a,5,5-trimethylhexahydro-4,6-methanobenzo[d][1,3,2]dioxaborol-2-yl)propyl)benzenesulfonamide] had an EC50 with IL-1β of 1 to 10 µM. Besides, the CC50 at 72 h in data set [1] is greater than 10 µM.

The compound `COc1ccc(S(=O)(=O)NC(=O)Nc2c3c(cc4c2CCC4)CCC3)cc1CCCB1O[C@@H]2C[C@@H]3C[C@@H](C3(C)C)[C@]2(C)O1` [Example 50, N-((1,2,3,5,6,7-hexahydro-s-indacen-4-yl)carbamoyl)-4-methoxy-3-(3-((3aS,4S,6S,7aR)-3a,5,5-trimethylhexahydro-4,6-methanobenzo[d][1,3,2]dioxaborol-2-yl)propyl)benzenesulfonamide] came in with an EC50 in the data set on IL-1β of 1 to 10 µM. The CC50 at 72 h in data set [1] is greater than 10 µM.

For the compound `COc1cc(-c2ccc3c(c2NC(=O)NS(=O)(=O)c2ccc4c(c2)COB4O)CCC3)ccn1` [Example 51, 1-hydroxy-N-((5-(2-methoxypyridin-4-yl)-2,3-dihydro-1H-inden-4-yl)carbamoyl)-1,3-dihydrobenzo[c][1,2]oxaborole-5-sulfonamide], in the data set with IL-1β, the EC50 fell in the range of 1 to 10 µM. In data set [1], the CC50 at 72 h was greater than 10 µM.

With `CC(C)c1cc(C#N)c(F)c(C(C)C)c1NC(=O)NS(=O)(=O)c1ccc2c(c1)C(O)OB2O` (stereo not drawn) [Example 52, N-((4-cyano-3-fluoro-2,6-diisopropylphenyl)carbamoyl)-1,3-dihydroxy-1,3-dihydrobenzo[c][1,2]oxaborole-5-sulfonamide], the EC50 in the data set with IL-1β was greater than 10 µM. In addition, the CC50 at 72 h in data set [2] and in data set [1] was greater than 10 µM in each case.

As for `COc1cc(-c2ccc3c(c2NC(=O)NS(=O)(=O)c2ccc4c(c2)C(O)OB4O)CCC3)ccn1` (stereo not drawn) [Example 53, 1,3-dihydroxy-N-((5-(2-methoxypyridin-4-yl)-2,3-dihydro-1H-inden-4-yl)carbamoyl)-1,3-dihydrobenzo[c][1,2]oxaborole-5-sulfonamide], the EC50 in the data set with IL-1β fell in the range of 1 to 10 µM. For the same compound, the 50% cytotoxic concentration (CC50) at 72 h in data set [2] and in data set [1] was greater than 10 µM in each case.

As for `CC(CB1OC(C)(C)C(C)(C)O1)c1coc(S(=O)(=O)NC(=O)Nc2c3c(cc4c2CCC4)CCC3)c1` (stereo not drawn) [Example 58, N-((1,2,3,5,6,7-hexahydro-s-indacen-4-yl)carbamoyl)-4-(1-(4,4,5,5-tetramethyl-1,3,2-dioxaborolan-2-yl)propan-2-yl)furan-2-sulfonamide], the concentration for a half-maximal effect (EC50) in the data set on IL-1β was less than 1 µM. In addition, the half-maximal cytotoxic concentration (CC50) at 72 h in data set [2] was greater than 10 µM.

On to `CC1(C)OB(CCCn2ccc(S(=O)(=O)NC(=O)Nc3c4c(cc5c3CCC5)CCC4)n2)OC1(C)C` [Example 59, N-((1,2,3,5,6,7-hexahydro-s-indacen-4-yl)carbamoyl)-1-(3-(4,4,5,5-tetramethyl-1,3,2-dioxaborolan-2-yl)propyl)-1H-pyrazole-3-sulfonamide], for which, in the data set on IL-1β, the half-maximal effective concentration (EC50) is less than 1 µM. Besides, the CC50 at 72 h in data set [1] was greater than 10 µM.

Take `O=C(Nc1c2c(cc3c1CCC3)CCC2)NS(=O)(=O)c1ccn(CCCB(O)O)n1` [Example 63, (3-(3-(N-((1,2,3,5,6,7-hexahydro-s-indacen-4-yl)carbamoyl)sulfamoyl)-1H-pyrazol-1-yl)propyl)boronic acid]: the concentration giving a half-maximal response (EC50) in the data set with IL-1β was less than 1 µM. Further, in data set [2], the CC50 at 72 h is greater than 10 µM.

Regarding `CC(CB1OC(C)(C)C(C)(C)O1)Cn1ccc(S(=O)(=O)NC(=O)Nc2c3c(cc4c2CCC4)CCC3)n1` (stereo not drawn) [Example 64, N-((1,2,3,5,6,7-hexahydro-s-indacen-4-yl)carbamoyl)-1-(2-methyl-3-(4,4,5,5-tetramethyl-1,3,2-dioxaborolan-2-yl)propyl)-1H-pyrazole-3-sulfonamide], the half-maximal effective concentration (EC50) with IL-1β is less than 1 µM. For the same compound, the cytotoxic concentration (CC50) at 72 h in data set [2] is greater than 10 µM.

Take `CC(CB(O)O)Cn1ccc(S(=O)(=O)NC(=O)Nc2c3c(cc4c2CCC4)CCC3)n1` (stereo not drawn) [Example 65, (3-(3-(N-((1,2,3,5,6,7-hexahydro-s-indacen-4-yl)carbamoyl)sulfamoyl)-1H-pyrazol-1-yl)-2-methylpropyl)boronic acid]: in the data set with IL-1β, the EC50 is less than 1 µM. Further, the CC50 at 72 h in data set [2] was greater than 10 µM.

For `CC(C)(Cn1ccc(S(=O)(=O)NC(=O)Nc2c3c(cc4c2CCC4)CCC3)n1)B1OC(C)(C)C(C)(C)O1` [Example 66, N-((1,2,3,5,6,7-hexahydro-s-indacen-4-yl)carbamoyl)-1-(2-methyl-2-(4,4,5,5-tetramethyl-1,3,2-dioxaborolan-2-yl)propyl)-1H-pyrazole-3-sulfonamide], in the data set with IL-1β, the EC50 was less than 1 µM. Also, in data set [2], the CC50 at 72 h was greater than 10 µM.

The compound `CC1(C)CCc2c1nc1c(c2NC(=O)NS(=O)(=O)c2ccn(CCCB(O)O)n2)CCC1` [Example 67, (3-(3-(N-((3,3-dimethyl-1,2,3,5,6,7-hexahydrodicyclopenta[b,e]pyridin-8-yl)carbamoyl)sulfamoyl)-1H-pyrazol-1-yl)propyl)boronic acid] came in with a concentration giving a half-maximal response (EC50) in the data set on IL-1β of less than 1 µM. Also, the CC50 at 72 h in data set [2] is greater than 10 µM.

In the data set on IL-1β, `CC(C)c1cc(C#N)c(F)c(C(C)C)c1NC(=O)NS(=O)(=O)c1ccn(CCCB(O)O)n1` [Example 68, (3-(3-(N-((4-cyano-3-fluoro-2,6-diisopropylphenyl)carbamoyl)sulfamoyl)-1H-pyrazol-1-yl)propyl)boronic acid] returned an EC50 of less than 1 µM. For the same compound, the half-maximal cytotoxic concentration (CC50) at 72 h in data set [2] was greater than 10 µM.

`COc1cc(-c2ccc3c(c2NC(=O)NS(=O)(=O)c2ccn(CCCB(O)O)n2)CCC3)ccn1` [Example 69, (3-(3-(N-((5-(2-methoxypyridin-4-yl)-2,3-dihydro-1H-inden-4-yl)carbamoyl)sulfamoyl)-1H-pyrazol-1-yl)propyl)boronic acid]: the concentration giving a half-maximal response (EC50) in the data set with IL-1β was less than 1 µM. Moreover, the half-maximal cytotoxic concentration (CC50) at 72 h in data set [2] is greater than 10 µM.

`CC1(C)OB(CCCC2(S(=O)(=O)NC(=O)Nc3c4c(cc5c3CCC5)CCC4)CC2)OC1(C)C` [Example 70, N-((1,2,3,5,6,7-hexahydro-s-indacen-4-yl)carbamoyl)-1-(3-(4,4,5,5-tetramethyl-1,3,2-dioxaborolan-2-yl)propyl)cyclopropane-1-sulfonamide] gave an EC50 with IL-1β of 1 to 10 µM. The CC50 at 72 h in data set [2] was greater than 10 µM.

Compound `O=C(Nc1c2c(cc3c1CCC3)CCC2)NS(=O)(=O)C1(CCCB(O)O)CC1` [Example 71, (3-(1-(N-((1,2,3,5,6,7-hexahydro-s-indacen-4-yl)carbamoyl)sulfamoyl)cyclopropyl)propyl)boronic acid] had an EC50 with IL-1β of 1 to 10 µM. Besides, the CC50 at 72 h in data set [2] is greater than 10 µM.

As to `O=C(Nc1c2c(cc3c1CCC3)CCC2)NS(=O)(=O)C1CCN(CCCB(O)O)CC1` [Example 72, (3-(4-(N-((1,2,3,5,6,7-hexahydro-s-indacen-4-yl)carbamoyl)sulfamoyl)piperidin-1-yl)propyl)boronic acid], the EC50 with IL-1β lay in the range of 1 to 10 µM. For the same compound, the CC50 at 72 h in data set [2] was greater than 10 µM.

For `CC1(C)OB(CCCN2CC(S(=O)(=O)NC(=O)Nc3c4c(cc5c3CCC5)CCC4)C2)OC1(C)C` [Example 73, N-((1,2,3,5,6,7-hexahydro-s-indacen-4-yl)carbamoyl)-1-(3-(4,4,5,5-tetramethyl-1,3,2-dioxaborolan-2-yl)propyl)azetidine-3-sulfonamide], the EC50 in the data set with IL-1β is less than 1 µM. Further, in data set [2], the CC50 at 72 h was greater than 10 µM.

`CC(C)(O)c1coc(S(=O)(=O)NC(=O)Nc2c3c(cc4c2CCC4)CCC3)c1` [MCC-950, reference compound]: the EC50 in the data set on IL-1β is less than 1 µM. Besides, the CC50 at 72 h in data set [1] was greater than 10 µM.
